Experimental data taken from PMC10314922, “Fluorescence lifetime FRET assay for live-cell high-throughput screening of the cardiac SERCA pump yields multiple classes of small-molecule allosteric modulators” (Scientific Reports, 2023).
“And” between values parts separate entries of the source, which are not always exact repeats. Equal values may be shown once. “Also recorded” adds a separate entry of the source. Read-outs that look alike come from different tables or passages of the source.

Legend:
[1] = biological target: T1, SERCA2a (Sus scrofa, UniProt P11607); set-up: method as in PMID 32397211; details: read-out: EC50 of SERCA inhibition; cited from earlier work
T1 construct: Cardiac SR vesicles were isolated from fresh porcine left ventricular tissue using differential centrifugation; from tissue; host or cells: porcine left ventricular tissue (cardiac SR vesicles)
T1 sequence (P11607 1-997 isoform P11607-2): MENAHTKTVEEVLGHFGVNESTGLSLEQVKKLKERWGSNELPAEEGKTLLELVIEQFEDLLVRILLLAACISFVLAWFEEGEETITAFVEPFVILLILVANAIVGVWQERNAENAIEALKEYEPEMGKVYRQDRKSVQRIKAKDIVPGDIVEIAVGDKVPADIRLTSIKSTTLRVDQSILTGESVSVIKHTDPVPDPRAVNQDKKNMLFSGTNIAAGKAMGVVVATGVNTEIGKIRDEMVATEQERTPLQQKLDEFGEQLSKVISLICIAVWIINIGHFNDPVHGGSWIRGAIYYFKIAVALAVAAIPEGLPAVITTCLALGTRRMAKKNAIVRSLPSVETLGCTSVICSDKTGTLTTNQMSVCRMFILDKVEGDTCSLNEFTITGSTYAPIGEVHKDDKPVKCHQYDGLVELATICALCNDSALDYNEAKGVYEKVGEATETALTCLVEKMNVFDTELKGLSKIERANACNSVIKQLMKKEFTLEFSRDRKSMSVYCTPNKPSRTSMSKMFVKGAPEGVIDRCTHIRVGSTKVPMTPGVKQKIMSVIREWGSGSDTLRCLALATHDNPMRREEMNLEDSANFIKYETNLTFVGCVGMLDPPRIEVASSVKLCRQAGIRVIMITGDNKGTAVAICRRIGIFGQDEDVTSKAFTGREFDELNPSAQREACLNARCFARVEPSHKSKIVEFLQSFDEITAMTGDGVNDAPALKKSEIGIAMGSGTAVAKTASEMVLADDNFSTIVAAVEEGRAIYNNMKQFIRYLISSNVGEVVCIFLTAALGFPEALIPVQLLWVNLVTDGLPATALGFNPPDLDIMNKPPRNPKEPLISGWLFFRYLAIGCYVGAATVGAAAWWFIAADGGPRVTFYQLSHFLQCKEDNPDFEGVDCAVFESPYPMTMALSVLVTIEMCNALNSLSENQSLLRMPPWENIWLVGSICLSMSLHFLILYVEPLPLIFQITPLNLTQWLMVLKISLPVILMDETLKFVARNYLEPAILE

[2] = biological target: T2, human two-color SERCA2a (2CS) biosensor (Homo sapiens, UniProt P16615, INS508[…]); experiment: FRET concentration response curves (FLT-FRET) with the 2CS biosensor in live HEK cells; format: cell-based
T2 construct: expressed in transfected cells
T2 sequence (P16615 other isoform, or with tags, fused parts or gaps with the stated changes): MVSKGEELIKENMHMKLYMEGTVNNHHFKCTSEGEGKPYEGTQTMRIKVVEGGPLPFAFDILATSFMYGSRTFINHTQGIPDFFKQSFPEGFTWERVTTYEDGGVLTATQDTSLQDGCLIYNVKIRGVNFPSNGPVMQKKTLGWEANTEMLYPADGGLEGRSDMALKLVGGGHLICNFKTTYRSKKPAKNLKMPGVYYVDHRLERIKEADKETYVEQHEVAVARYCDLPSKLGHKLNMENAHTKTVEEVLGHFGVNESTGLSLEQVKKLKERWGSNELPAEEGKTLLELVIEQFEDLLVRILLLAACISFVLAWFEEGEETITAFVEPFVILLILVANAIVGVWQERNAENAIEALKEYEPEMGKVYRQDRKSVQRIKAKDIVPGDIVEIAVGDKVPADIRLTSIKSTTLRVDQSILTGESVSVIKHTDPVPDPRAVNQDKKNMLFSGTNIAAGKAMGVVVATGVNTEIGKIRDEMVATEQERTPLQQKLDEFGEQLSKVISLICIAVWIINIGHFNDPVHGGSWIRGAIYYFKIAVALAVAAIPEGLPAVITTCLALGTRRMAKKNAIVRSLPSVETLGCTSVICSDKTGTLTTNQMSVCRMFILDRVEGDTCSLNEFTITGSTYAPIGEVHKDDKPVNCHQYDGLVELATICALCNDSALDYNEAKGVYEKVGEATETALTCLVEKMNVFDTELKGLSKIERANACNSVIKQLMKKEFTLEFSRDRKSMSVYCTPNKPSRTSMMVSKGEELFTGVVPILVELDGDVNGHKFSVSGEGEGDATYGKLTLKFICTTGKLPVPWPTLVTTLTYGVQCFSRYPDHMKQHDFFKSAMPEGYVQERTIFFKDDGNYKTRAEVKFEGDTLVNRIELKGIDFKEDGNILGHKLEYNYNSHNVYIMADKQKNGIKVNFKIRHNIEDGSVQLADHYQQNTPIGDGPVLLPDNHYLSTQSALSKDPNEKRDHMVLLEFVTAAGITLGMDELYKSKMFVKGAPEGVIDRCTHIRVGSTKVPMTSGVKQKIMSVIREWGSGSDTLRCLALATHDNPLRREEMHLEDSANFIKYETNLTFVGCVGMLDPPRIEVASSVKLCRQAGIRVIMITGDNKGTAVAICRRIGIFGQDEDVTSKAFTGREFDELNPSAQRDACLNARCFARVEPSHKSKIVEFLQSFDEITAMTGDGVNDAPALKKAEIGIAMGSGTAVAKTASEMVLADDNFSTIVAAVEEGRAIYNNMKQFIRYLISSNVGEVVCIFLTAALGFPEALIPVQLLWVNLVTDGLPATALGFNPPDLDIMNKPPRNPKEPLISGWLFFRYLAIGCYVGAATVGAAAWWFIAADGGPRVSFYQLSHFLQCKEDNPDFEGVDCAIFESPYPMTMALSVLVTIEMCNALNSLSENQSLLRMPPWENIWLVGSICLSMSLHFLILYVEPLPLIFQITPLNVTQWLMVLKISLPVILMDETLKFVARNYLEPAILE
From the text: A two-color intramolecular human SERCA2a (2CS) biosensor, based on human cardiac SERCA2a fused to green fluorescent protein (eGFP) and red fluorescent protein (tagRFP) was developed to detect structural changes that are related to the functional changes of SERCA[20],[22],[25]. Briefly, tagRFP was genetically fused to the N-terminus of SERCA (A-domain) and eGFP was inserted as an intrasequence tag before residue 509 in the nucleotide-binding domain (N-domain)[60],[61]. Donor-only and acceptor-only (1CS) biosensors were created in a similar manner as the 2CS biosensor but with the construct containing either only eGFP or only tag-RFP, respectively. […] A null-biosensor construct consisting of eGFP and tagRFP connected by a 32-residue unstructured flexible linker peptide (G32R) was created as described previously[23],[25]. All constructs were cloned into expression vectors containing the genes for antibiotic resistance to G418, puromycin, or blasticidin.
Stable cell lines were generated using either human embryonic kidney (HEK) HEK293 (ATCC, Manassas, VA) or HEK293-6E (National Research Council, Canada) cells. Briefly, cells were transiently transfected with 2CS, 1CS, or G32R null-biosensor plasmids using Lipofecatime 3000 or 293fectin (Thermo Fisher Scientific). Flow cytometry was used to select and enrich for the population of cells expressing respective biosensors. Stable HEK293 cell lines were maintained in phenol red-free DMEM media (Gibco, Waltham, MA) supplemented with 2 mM GlutaMAX (Gibco, Waltham, MA), 10% fetal bovine serum (FBS) (Atlanta Biologicals, Lawrenceville, GA), 1 IU/mL penicillin/streptomycin (Gibco, Waltham, MA), and 250 μg/mL G418 (Fisher Scientific). Stable HEK293-6E cell lines were maintained in F17 media (Sigma Aldrich) supplemented with Kolliphor p188 (Sigma Aldrich, St. Louis, MO), […] GlutaMAX, and either 1 μg/mL puromycin (Invitrogen, Carlsbad, CA) or 2 μg/mL blasticidin (Goldbio) as a selection antibiotic. All cell lines were grown at 37 °C with 5% CO2.
FRET CRC assay plates (0.78–100 μM compound range) with at least ten different compound concentrations were made by adding the appropriate volume of compound or DMSO into black 384 well plates (Greiner Bio-One) using a Mosquito HV (SPTLabTech, United Kingdom). Subsequent Ca^2+-ATPase activity and Ca^2+-transport CRC assay plates (0–50 μM compound range) with repurchased compounds were made in a similar manner using with the Echo 550 (Beckman Coulter) using either 384 well transparent plates (Greiner Bio-One) or black-walled plates with transparent bottoms (Greiner Bio-One), respectively.
On each day of screening, cells were harvested, washed three times with PBS, and centrifuged at 300 g for 5 min. Cells were filtered using a 70 µm cell strainer and diluted to 1–2 × 10^6 cells/mL. Cell concentration and viability were assessed using the Cell countess (Invitrogen) and trypan blue assay. During assays, cells were constantly and gently stirred using a magnetic stir bar at room temperature, keeping the cells in suspension and evenly distributed to avoid clumping. HEK 293-cells expressing 2CS were dispensed at 5 μL or […] per well into assay plates (dispensed into 40 assay plates, each containing 1536 wells) pre-plated with compounds (from a DIVERset 50,000 compound library) using a Multdrop Combi liquid dispenser (Thermo Fisher Scientific, Pittsburg, PA) and sealed until needed. Because the kinetics of membrane permeability, diffusion, and/or binding of the compound to live cells may be compound-dependent, we tested two incubation times, 20 min and 120 min, for the FRET CRC. […] Plates containing eight-point concentration curves of three tool compounds (known SERCA effectors thapsigargin, BHQ, and CPA)[22] were used as positive controls for biosensor function and performance prior to running the full-scale FRET-HTS assay. […]

[3] = biological target: T1, SERCA2a; experiment: NADH-linked Ca2+-ATPase activity assay in pig cardiac SR (pCSR) vesicles; format: biochemical; details: for Ca2+-ATPase C10: concentration yielding 10% effect; for Ca2+-ATPase ΔFMAX / Ca2+-ATPase ΔFMID: maximal compound effect vs DMSO control, pCSR; for Effect on Ca2+-ATPase activity (category, Fig. 4A): activators, categories activate / uncouple / inhibit
Description: (§1) Cardiac SR vesicles were isolated from fresh porcine left ventricular tissue using differential centrifugation of the homogenized tissue as previously described. The SR vesicles were flash-frozen and stored at − 80 °C until needed. The SERCA concentration in the ER preparations purified from HEK cell homogenate is at least 10 times less than in purified porcine cardiac SR[20], but there was sufficient expression of the fluorescent SERCA2a biosensor in HEK cells to detect FRET with high precision by FLT[22],[23],[26].
Functional assays were performed using porcine cardiac SR (pCSR) vesicles. An enzyme-coupled, NADH-linked ATPase assay was used to measure SERCA ATPase activity in 384-well microplates. Each well contained 50 mM MOPS (pH 7.0), 100 mM KCl, 1 mM EGTA, 0.2 mM NADH, 1 mM phosphoenol pyruvate, 10 IU/mL of pyruvate kinase, 10 IU/mL of lactate dehydrogenase, 7 µM of the calcium ionophore A23187 (Sigma), and CaCl2 was added to set free [Ca^2+] to three different concentrations. Ca^2+-ATPase activity was measured at three [Ca^2+]: [Ca^2+]MAX (saturating, pCa 5.4), [Ca^2+]MID (subsaturating, midpoint, pCa 6.2), and [Ca^2+]BAS (basal non-activating, pCa 8.0). 10 μg/mL of SR vesicle, calcium, compound (0.048 to 50 μM), and assay mix were incubated for 20 min at room temperature before measurement of functional assays with each of the 18 hit compounds, because a shorter incubation time than the FRET live-cell assays achieved optimal responses. The assay was started upon the addition of MgATP, at a final concentration of 5 mM (total volume to 80 μL), and absorbance was read at 340 nm in a SpectraMax Plus^384 microplate spectrophotometer (Molecular Devices, Sunnyvale, CA).
(§2) SERCA2a activity, F (rate of ATP hydrolysis or Ca^2+ uptake), was measured at varying pCa and varying compound concentration. F measured at [Ca^2+]MAX (saturating, pCa 5.4) or [Ca^2+]MID (subsaturating, midpoint, pCa 6.2) was corrected by subtracting the basal rate at pCa 8.0) and the % effect due to compound was reported. Concentration response curves (CRC) were fitted using the Hill function to determine VMAX (the activity at saturating [compound]), and EC50, the compound concentration at 50% effect.

[4] = biological target: T1, SERCA2a; experiment: Oxalate-supported Fluo-4 Ca2+-uptake (Ca2+-transport) assay in pig cardiac SR (pCSR) vesicles; format: biochemical; details: for Decrease (inhibition) of Ca2+-uptake at [Ca2+]MAX: size of decrease; for Ca2+-Uptake C10: concentration yielding 10% effect; for Effect on Ca2+-uptake (category, Fig. 4A): activators, categories activate / uncouple / inhibit; for CR (coupling ratio) VU/VA: maximum Ca2+-uptake rate / Ca2+-ATPase rate at [Ca2+]MAX, DMSO control = 0.66
Description: as §1
Ca^2+-transport assays were performed with similar porcine SR samples as in the Ca^2+-ATPase assays described above. The compound effect on the Ca^2+-transport activity of SERCA2a was determined using an oxalate-supported assay in which the change in fluorescence in a Ca^2+-sensitive dye, Fluor-4, was determined as previously described. A buffered solution containing 50 mM MOPS (pH 7.0), 100 mM KCl, 30 mg/mL sucrose, 1 mM EGTA, 10 mM potassium oxalate, 2 µM Fluo-4, 30 µg/mL porcine cardiac SR vesicles, CaCl2 calculated to reach the free [Ca^2+] (pCa 8.0, 6.2, and 5.4), and compound (0.048 to 50 μM) was dispensed into 384-well black walled, transparent bottomed plates (Greiner Bio-One) containing the tested small molecule and incubated at 22℃ for 20 min while covered and protected from light. To start the reaction, MgATP was added to a final concentration of 5 mM, and the decrease in 485-nm excited fluorescence of Fluo-4 was monitored at 520 nm for 15 min using a FLIPR Tetra (Molecular Devices, San Jose, CA).
as §2

[5] = [Ca2+]MID (pCa6.2), maximal compound effect vs DMSO control, pCSR

| SMILES | EC50 [2] [nM] | Increase in Ca2+-ATPase activity [3] | Ca2+-ATPase C10 ([3]; [Ca2+]MAX (pCa5.4)) [µM] | Ca2+-ATPase ΔFMAX ([3]; [Ca2+]MAX (pCa5.4)) | Ca2+-ATPase C10 ([3]; [Ca2+]MID (pCa6.2)) [µM] | Ca2+-ATPase ΔFMID ([3]; [Ca2+]MID (pCa6.2)) | Effect on Ca2+-ATPase activity (category, Fig. 4A) [3] | Decrease (inhibition) of Ca2+-uptake at [Ca2+]MAX [4] [%] | Ca2+-Uptake C10 ([4]; [Ca2+]MID (pCa6.2)) [µM] | Ca2+-Uptake ΔFMID [4, 5] | Effect on Ca2+-uptake (category, Fig. 4A) [4] | CR (coupling ratio) VU/VA [4] | EC50 ([3]; [Ca2+]MAX (pCa5.4)) [µM] | Ca2+-Uptake C10 ([4]; [Ca2+]MAX (pCa5.4)) [µM] | also measured |
| --- | --- | --- | --- | --- | --- | --- | --- | --- | --- | --- | --- | --- | --- | --- | --- |
| C/C=C(/C)C(=O)O[C@H]1C(C)=C2[C@H]([C@@H]1OC(=O)CCCCCCC)[C@@](C)(OC(C)=O)C[C@H](OC(=O)CCC)[C@@]1(O)[C@H]2OC(=O)[C@@]1(C)O [Tg, thapsigargin] |  |  |  |  |  |  |  |  |  |  |  |  |  |  | EC50 [1]: ~7.5 nM |
| COc1ccc(Cc2noc(CN3CCN(c4nc5ccccc5s4)CC3)n2)cc1OC [Compound 5, 2-(4-{[3-(3,4-dimethoxybenzyl)-1,2,4-oxadiazol-5-yl]methyl}-1-piperazinyl)-1,3-benzothiazole] | 1500 ± 100 | 10–25% | 22.7 | 25% and 25 ± 3.3% | 19.6 | 35% and 35 ± 8.2% | activate | 2 | 22.5 | 20% and 20 ± 3.3% | inhibit | 0.47 |  |  |  |
| O=C(c1cc(COc2ccc3ncccc3c2)on1)N1CCC(c2ccncc2)CC1 [Compound 2, 6-[(3-{[4-(4-pyridinyl)-1-piperidinyl]carbonyl}-5-isoxazolyl)methoxy]quinoline] | 1400 ± 500 |  | 48 | 16% and 16 ± 3% |  | 7% and 7 ± 3% | activate |  |  | 4 ± 2.1% | uncouple | 0.53 |  |  | Ca2+-Uptake ΔFMAX ([4]; [Ca2+]MAX (pCa5.4), maximal compound effect vs DMSO control, pCSR): 4 ± 6.1%; Increase in Ca2+-uptake ([4]; over [Ca2+]MAX and [Ca2+]MID): 0.5–10% |
| CCc1ccc(S(=O)(=O)N2CCCC(C(=O)c3sccc3C)C2)cc1 (centres unmarked) [Compound 14, {1-[(4-ethylphenyl)sulfonyl]-3-piperidinyl}(3-methyl-2-thienyl)methanone] | 9200 ± 1100 |  | 6.3 |  | 3.2 |  |  |  | 1.7 |  |  | 0.16 | 13 ± 11 | 1.3 | EC50 ([3]; [Ca2+]MID (pCa6.2)): 8.9 ± 2.2 µM; EC50 ([4]; [Ca2+]MAX (pCa5.4)): 3.4 ± 0.2 µM; EC50 ([4]; [Ca2+]MID (pCa6.2)): 3.9 ± 0.2 µM; Inhibition of Ca2+-uptake (class) ([4]; strong / moderate / mild): M → S; also recorded: moderate-to-strong |
| O=C(c1cc(COc2ccc3c(c2)CCCC3)on1)N1CCC(c2ccncc2)CC1 [Compound 3, 4-[1-({5-[(5,6,7,8-tetrahydro-2-naphthalenyloxy)methyl]-3-isoxazolyl}carbonyl)-4-piperidinyl]pyridine] | 1600 ± 200 | 10–25% | 11.0 | 21 ± 5.1% | 14.8 | 30 ± 11% | activate | 20 |  | 6% and 6 ± 3.3% | inhibit | 0.39 | 8.4 ± 3.1 | 17.5 |  |
